The source of these data is publication PMC7016641, “The Role of Transient Receptor Potential Melastatin 7 (TRPM7) in Cell Viability: A Potential Target to Suppress Breast Cancer Cell Cycle” (Cancers, 2020).

SMILES strings stand for the structures.

The test addresses T1, TRPM7 (transient receptor potential melastatin 7) (Mus musculus, UniProt Q923J1).
T1 construct: murine TRPM7 (GenBank AF376052) overexpressed in HEK293 (HEK-M7)
Nature of the test: whole-cell patch clamp at +[…] mV; Fura-2 Mn2+ quench gave IC50 […]. It counts as cell-based. Background: In patch-clamp work, channel activity is measured electrically.

T1 sequence (Q923J1 whole entry): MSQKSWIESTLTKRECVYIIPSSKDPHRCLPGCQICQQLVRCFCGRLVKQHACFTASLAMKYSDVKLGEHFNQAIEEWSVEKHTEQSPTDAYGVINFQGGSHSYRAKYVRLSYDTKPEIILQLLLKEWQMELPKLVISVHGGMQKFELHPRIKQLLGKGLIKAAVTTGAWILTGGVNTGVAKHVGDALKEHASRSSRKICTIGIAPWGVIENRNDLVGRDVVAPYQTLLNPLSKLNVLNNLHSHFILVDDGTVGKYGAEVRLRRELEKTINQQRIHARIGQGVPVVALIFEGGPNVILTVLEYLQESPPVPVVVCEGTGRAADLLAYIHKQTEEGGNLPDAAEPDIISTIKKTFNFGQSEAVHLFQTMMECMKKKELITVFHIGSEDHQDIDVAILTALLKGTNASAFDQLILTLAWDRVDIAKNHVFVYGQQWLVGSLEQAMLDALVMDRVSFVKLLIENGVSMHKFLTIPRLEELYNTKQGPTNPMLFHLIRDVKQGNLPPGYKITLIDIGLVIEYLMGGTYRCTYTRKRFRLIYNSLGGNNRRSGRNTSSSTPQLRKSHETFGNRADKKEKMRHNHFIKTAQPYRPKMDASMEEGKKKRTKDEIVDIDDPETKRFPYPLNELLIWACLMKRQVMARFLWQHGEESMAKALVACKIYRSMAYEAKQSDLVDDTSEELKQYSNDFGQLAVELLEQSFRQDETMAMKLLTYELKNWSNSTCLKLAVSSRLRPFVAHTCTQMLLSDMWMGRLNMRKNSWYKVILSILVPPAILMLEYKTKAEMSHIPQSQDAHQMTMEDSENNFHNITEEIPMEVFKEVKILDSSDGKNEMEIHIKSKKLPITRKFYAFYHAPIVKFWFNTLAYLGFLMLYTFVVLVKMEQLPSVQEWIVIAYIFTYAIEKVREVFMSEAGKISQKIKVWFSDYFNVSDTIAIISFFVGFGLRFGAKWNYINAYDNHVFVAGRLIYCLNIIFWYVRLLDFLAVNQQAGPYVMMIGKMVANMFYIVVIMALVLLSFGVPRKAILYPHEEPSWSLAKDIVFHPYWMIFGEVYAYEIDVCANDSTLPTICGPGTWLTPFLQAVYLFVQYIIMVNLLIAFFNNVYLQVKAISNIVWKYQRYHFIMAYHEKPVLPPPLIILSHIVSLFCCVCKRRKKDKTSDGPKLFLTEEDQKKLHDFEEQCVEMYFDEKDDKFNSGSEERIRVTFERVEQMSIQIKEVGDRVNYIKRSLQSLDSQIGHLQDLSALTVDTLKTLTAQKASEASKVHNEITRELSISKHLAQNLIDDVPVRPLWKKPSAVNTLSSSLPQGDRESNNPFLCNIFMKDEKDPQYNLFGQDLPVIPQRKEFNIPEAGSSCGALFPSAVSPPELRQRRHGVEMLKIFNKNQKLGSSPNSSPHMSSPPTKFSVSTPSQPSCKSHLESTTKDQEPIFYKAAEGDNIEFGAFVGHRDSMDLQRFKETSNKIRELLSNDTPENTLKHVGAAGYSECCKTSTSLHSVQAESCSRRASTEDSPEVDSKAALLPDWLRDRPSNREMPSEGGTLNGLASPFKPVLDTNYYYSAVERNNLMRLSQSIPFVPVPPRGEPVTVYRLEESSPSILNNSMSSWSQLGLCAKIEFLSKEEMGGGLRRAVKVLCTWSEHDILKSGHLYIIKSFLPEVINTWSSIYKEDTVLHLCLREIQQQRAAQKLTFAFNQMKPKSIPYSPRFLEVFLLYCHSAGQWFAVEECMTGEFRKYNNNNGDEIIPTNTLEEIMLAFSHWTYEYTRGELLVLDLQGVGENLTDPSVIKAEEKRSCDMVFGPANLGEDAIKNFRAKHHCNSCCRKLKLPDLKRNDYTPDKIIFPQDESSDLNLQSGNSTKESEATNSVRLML

`NCCOB(c1ccccc1)c1ccccc1` [2-APB, 2-aminoethyl diphenylborinate] came in with an IC50 of 120 ± 16 µM.

In general, IC50 refers to the concentration at which inhibition is half-maximal. A higher IC50 goes with weaker potency.
